Data as given in PubChem BioAssay (NCI).
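48-hour exposure; five concentrations; linearly interpolated endpoints. GI50 is the concentration that inhibits growth by half. TGI: total growth inhibition.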

Assays:
Assay in all cases: NCI anticancer screen, dose series, 48 h
[1] = system: SK-MEL-2 melanoma
[2] = system: IGROV1 ovarian
[3] = system: RPMI-8226 leukemia
[4] = system: UACC-257 melanoma
[5] = system: NCI-H226 lung
[6] = system: OVCAR-5 ovarian
[7] = system: SNB-19 CNS
[8] = system: HS 578T breast
[9] = system: HL-60(TB) leukemia
[10] = system: SNB-75 CNS
[11] = system: RXF 393 renal
[12] = system: HCC-2998 colon
[13] = system: M14 melanoma
[14] = system: OVCAR-8 ovarian
[15] = system: BT-549 breast
[16] = system: OVCAR-4 ovarian
[17] = system: CAKI-1 renal
[18] = system: MALME-3M melanoma
[19] = system: SK-MEL-28 melanoma
[20] = system: KM12 colon
[21] = system: NCI-H23 lung
[22] = system: LOX IMVI melanoma
[23] = system: SW-620 colon
[24] = system: UACC-62 melanoma
[25] = system: MDA-MB-231 breast
[26] = system: HT29 colon
[27] = system: MOLT-4 leukemia
[28] = system: MDA-MB-435
[29] = system: NCI-H460 lung
[30] = system: SK-MEL-5 melanoma
[31] = system: HOP-92 NSCLC
[32] = system: PC-3 prostate
[33] = system: SF-268 CNS
[34] = system: SK-OV-3 ovarian
[35] = system: SF-295 CNS
[36] = system: NCI/ADR-RES ovarian
[37] = system: EKVX NSCLC
[38] = system: 786-0 renal
[39] = system: A498 renal
[40] = system: U251 CNS
[41] = system: SF-539 CNS
[42] = system: MCF7 breast
[43] = system: T-47D breast
[44] = system: HCT-116 colon
[45] = system: SN12C renal
[46] = system: COLO 205 colon
[47] = system: OVCAR-3 ovarian
[48] = system: UO-31 renal
[49] = system: NCI-H522 lung
[50] = system: DU-145 prostate
[51] = system: HCT-15 colon
[52] = system: ACHN renal
[53] = system: TK-10 renal
[54] = system: CCRF-CEM leukemia
[55] = system: HOP-62 NSCLC
[56] = system: A549 NSCLC
[57] = system: K-562 leukemia

Cc1nn(-c2ccccc2)c(-n2ccnc2)c1/C=N/Nc1nc(-c2ccc(Cl)c(Cl)c2)cs1
GI50 [1]: 17.5 µM
TGI [1]: 50.8 µM
GI50 [2]: 6.07 µM
TGI [2]: 26.2 µM
GI50 [3]: 0.65 µM
TGI [3]: 8.83 µM
GI50 [4]: 17.7 µM
TGI [4]: 85.3 µM
GI50 [5]: 1.91 µM
TGI [5]: 10.8 µM
GI50 [6]: 14.9 µM
TGI [6]: 57.6 µM
GI50 [7]: 16.2 µM
TGI [7]: 92.3 µM
GI50 [8]: 2.95 µM
TGI [8]: 28.9 µM
GI50 [9]: 6.91 µM
TGI [9]: > 100 µM
GI50 [10]: 1.66 µM
TGI [10]: 5.35 µM
GI50 [11]: 2.29 µM
TGI [11]: 6.12 µM
GI50 [12]: 5.1 µM
TGI [12]: 46.8 µM
GI50 [13]: 4.11 µM
TGI [13]: 30.6 µM
GI50 [14]: 3.44 µM
TGI [14]: 22.3 µM
GI50 [15]: 5.88 µM
TGI [15]: 45 µM
GI50 [16]: 1.48 µM
TGI [16]: 3.76 µM
GI50 [17]: 5.55 µM
TGI [17]: 20 µM
GI50 [18]: 1.95 µM
TGI [18]: 9.21 µM
GI50 [19]: 3.89 µM
TGI [19]: 19.7 µM
GI50 [20]: 7.89 µM
TGI [20]: > 100 µM
GI50 [21]: 1.94 µM
TGI [21]: 9.9 µM
GI50 [22]: 3.01 µM
TGI [22]: 13.4 µM
GI50 [23]: 3.36 µM
TGI [23]: 53.4 µM
GI50 [24]: 7.6 µM
TGI [24]: 31.9 µM
GI50 [25]: 2.49 µM
TGI [25]: 11.2 µM
GI50 [26]: 4.99 µM
TGI [26]: > 100 µM
GI50 [27]: 7.33 µM
TGI [27]: > 100 µM
GI50 [28]: 84.7 µM
TGI [28]: > 100 µM
GI50 [29]: 3.04 µM
TGI [29]: 10.7 µM
GI50 [30]: 2.54 µM
TGI [30]: 12.9 µM
GI50 [31]: 0.214 µM
TGI [31]: 3.49 µM
GI50 [32]: 3.02 µM
TGI [32]: 18.7 µM
GI50 [33]: 9.37 µM
TGI [33]: 37.5 µM
GI50 [34]: 23.5 µM
TGI [34]: 69.4 µM
GI50 [35]: 5.21 µM
TGI [35]: 20.3 µM
GI50 [36]: 2.31 µM
TGI [36]: 9.02 µM
GI50 [37]: 5.7 µM
TGI [37]: 36.5 µM
GI50 [38]: 3.21 µM
TGI [38]: 13.3 µM
GI50 [39]: 7.98 µM
TGI [39]: 35.9 µM
GI50 [40]: 4.28 µM
TGI [40]: 20.7 µM
GI50 [41]: 3.66 µM
TGI [41]: 14.2 µM
GI50 [42]: 2.17 µM
TGI [42]: 6.37 µM
GI50 [43]: 6.65 µM
TGI [43]: > 100 µM
GI50 [44]: 1.9 µM
TGI [44]: 4.75 µM
GI50 [45]: 4.2 µM
TGI [45]: 20.1 µM
GI50 [46]: 4.46 µM
TGI [46]: > 100 µM
GI50 [47]: 1.68 µM
TGI [47]: 3.44 µM
GI50 [48]: 2.3 µM
TGI [48]: 21.8 µM
GI50 [49]: 13.4 µM
TGI [49]: 68.1 µM
GI50 [50]: 3.15 µM
TGI [50]: 13.3 µM
GI50 [51]: 4.09 µM
TGI [51]: > 100 µM
GI50 [52]: 3.97 µM
TGI [52]: 16.9 µM
GI50 [53]: 20.3 µM
TGI [53]: 63.2 µM
GI50 [54]: 3.96 µM
TGI [54]: > 100 µM
GI50 [55]: 5.92 µM
TGI [55]: 29.7 µM
GI50 [56]: 2.72 µM
TGI [56]: 10 µM
GI50 [57]: 2.49 µM
TGI [57]: > 100 µM

C=C(C)[C@@H]1CC[C@]2(COC(C)=O)CC[C@]3(C)[C@H](CC[C@@H]4[C@@]5(C)CCCN(C(C)=O)C(C)(C)[C@@H]5CC[C@]43C)[C@@H]12
GI50 [1]: 1.88 µM
TGI [1]: 3.54 µM
GI50 [2]: 1.81 µM
TGI [2]: 3.37 µM
GI50 [3]: 1.98 µM
TGI [3]: 4.19 µM
GI50 [4]: 1.74 µM
TGI [4]: 3.31 µM
GI50 [5]: 2.2 µM
TGI [5]: 5.04 µM
GI50 [6]: 1.66 µM
TGI [6]: 3.19 µM
GI50 [7]: 1.81 µM
TGI [7]: 3.27 µM
GI50 [8]: 1.85 µM
TGI [8]: 4.05 µM
GI50 [9]: 1.9 µM
TGI [9]: 3.82 µM
GI50 [10]: 1.48 µM
TGI [10]: 2.88 µM
GI50 [11]: 1.59 µM
TGI [11]: 3.02 µM
GI50 [12]: 1.67 µM
TGI [12]: 3.16 µM
GI50 [13]: 1.9 µM
TGI [13]: 3.92 µM
GI50 [14]: 1.84 µM
TGI [14]: 3.42 µM
GI50 [15]: 2.41 µM
TGI [15]: 6.41 µM
GI50 [16]: 1.57 µM
TGI [16]: 3.13 µM
GI50 [17]: 1.58 µM
TGI [17]: 2.96 µM
GI50 [18]: 1.57 µM
TGI [18]: 3.05 µM
GI50 [19]: 1.82 µM
TGI [19]: 3.33 µM
GI50 [20]: 1.83 µM
TGI [20]: 3.42 µM
GI50 [21]: 1.89 µM
TGI [21]: 3.53 µM
GI50 [22]: 1.45 µM
TGI [22]: 2.76 µM
GI50 [23]: 1.75 µM
TGI [23]: 3.47 µM
GI50 [24]: 1.79 µM
TGI [24]: 3.23 µM
GI50 [25]: 1.75 µM
TGI [25]: 3.46 µM
GI50 [26]: 1.52 µM
TGI [26]: 2.95 µM
GI50 [27]: 1.84 µM
TGI [27]: 4.2 µM
GI50 [28]: 1.48 µM
TGI [28]: 2.85 µM
GI50 [29]: 1.9 µM
TGI [29]: 3.72 µM
GI50 [30]: 1.78 µM
TGI [30]: 3.19 µM
GI50 [31]: 1.31 µM
TGI [31]: 2.7 µM
GI50 [32]: 1.58 µM
TGI [32]: 3.23 µM
GI50 [33]: 3.37 µM
TGI [33]: 13.5 µM
GI50 [34]: 1.97 µM
TGI [34]: 4.19 µM
GI50 [35]: 1.69 µM
TGI [35]: 3.12 µM
GI50 [36]: 1.89 µM
TGI [36]: 3.68 µM
GI50 [37]: 1.58 µM
TGI [37]: 3.2 µM
GI50 [38]: 1.75 µM
TGI [38]: 3.22 µM
GI50 [39]: 9.84 µM
TGI [39]: 23.4 µM
GI50 [40]: 1.69 µM
TGI [40]: 3.15 µM
GI50 [41]: 1.67 µM
TGI [41]: 3.06 µM
GI50 [42]: 1.45 µM
TGI [42]: 3.13 µM
GI50 [43]: 1.63 µM
TGI [43]: 3.22 µM
GI50 [44]: 1.77 µM
TGI [44]: 3.31 µM
GI50 [45]: 1.75 µM
TGI [45]: 3.33 µM
GI50 [46]: 1.19 µM
TGI [46]: 2.55 µM
GI50 [47]: 1.93 µM
TGI [47]: 3.75 µM
GI50 [48]: 1.38 µM
TGI [48]: 2.68 µM
GI50 [49]: 1.65 µM
TGI [49]: 3.24 µM
GI50 [50]: 1.75 µM
TGI [50]: 3.29 µM
GI50 [51]: 1.65 µM
TGI [51]: 3.05 µM
GI50 [52]: 1.7 µM
TGI [52]: 3.07 µM
GI50 [53]: 1.71 µM
TGI [53]: 3.18 µM
GI50 [54]: 1.87 µM
TGI [54]: 4.95 µM
GI50 [55]: 1.69 µM
TGI [55]: 3.16 µM
GI50 [56]: 1.69 µM
TGI [56]: 3.23 µM
GI50 [57]: 1.58 µM
TGI [57]: 4.14 µM
